Test results reported in ChEMBL document CHEMBL3243921, “2-Pyrrolidinylideneureas, a new class of central nervous system agents” (J Med Chem, 1978).
Activity calls are given as the source filed them.

Experiments:
[1] = test system: Rattus norvegicus; assay: Antianxiety activity in ip dosed rat assessed as effect on increase in punished responses administered qd for 5 days measured every day for 5 days; format: functional; conditions: for minimal effective dose: 120 h, read-out: MED
[2] = test system: Mus musculus; assay: Sedative-hypnotic activity in po dosed mouse assessed as increase in pentylenetetrazol-induced persistent-convulsive threshold; format: functional, organism-based
[3] = test system: Mus musculus; assay: Sedative-hypnotic activity in mouse assessed as increase in pentylenetetrazol-induced pseudo/persistent-convulsive threshold at 50 to 200 mg/kg, po; format: functional, organism-based
[4] = Therapeutic index, ratio of PD50 for acute toxicity in po dosed mouse assessed as concentration required to produce 50% loss of righting reflex to MED causing antianxiety activity in ip dosed rat assessed as effect on increase in punished responses; format: organism-based; conditions: in vivo, other: oral (PD50, mouse) and intraperitoneal (MED, rat), read-out: TI
[5] = test system: Mus musculus; assay: Muscle relaxant activity in po dosed mouse assessed as increase in strychnine-induced persistant convulsive threshold; format: functional
[6] = test system: Mus musculus; assay: Anticonvulsant activity in po dosed mouse assessed as blockade of supramaximal electroshock-induced […] seizure; format: functional
[7] = test system: Mus musculus; assay: Muscle relaxant activity in po dosed mouse assessed as blockade of pentylenetetrazol-induced tonic extensor seizure; format: functional
[8] = Acute toxicity in po dosed mouse assessed as mortality administered as qd for 6 days measured on day 7 post last dose; format: organism-based; conditions: in vivo
[9] = Ratio of LD50 for po dosed mouse to PD50 for acute toxicity in po dosed mouse assessed as concentration required to produce 50% loss of righting reflex; format: organism-based; conditions: in vivo
[10] = test system: Mus musculus; assay: Acute toxicity in po dosed mouse assessed as concentration required to produce 50% loss of righting reflex administered as qd for 4 days measured for 1 min post last dose; format: organism-based; conditions: in vivo
[11] = test system: Mus musculus; assay: Sedative activity in mouse assessed as increase in pentylenetetrazol-induced pseudo-convulsive threshold at 25 to 200 mg/kg, po; format: functional, organism-based
[12] = test system: Mus musculus; assay: Sedative activity in mouse assessed as increase in pentylenetetrazol-induced pseudo-convulsive threshold up to 200 mg/kg, po; format: functional, organism-based; set-up: dose 200 mg/kg
[13] = test system: Mus musculus; assay: Blockade of pentylenetetrazol-induced lethality in mouse assessed as delay in occurrence of death time up to 200 mg/kg, po; format: functional
[14] = test system: Mus musculus; assay: Hypnotic activity in mouse assessed as increase in pentylenetetrazol-induced persistent-convulsive threshold up to 200 mg/kg, po; format: functional, organism-based; set-up: dose 200 mg/kg
[15] = test system: Rattus norvegicus; assay: Antianxiety activity in rat assessed as effect on increase in punished responses at 25 mg/kg, ip qd administered for 5 days measured every day for 5 days; format: functional, organism-based; set-up: dose 25 mg/kg
[16] = test system: Mus musculus; assay: Muscle relaxant activity in mouse assessed as blockade of pentylenetetrazol-induced tonic extensor seizure at 40 mg/kg, po; format: functional, organism-based; set-up: dose 40 mg/kg
[17] = test system: Mus musculus; assay: Blockade of pentylenetetrazol-induced lethality in mouse at 40 mg/kg, po; format: functional, organism-based; set-up: dose 40 mg/kg
[18] = test system: Mus musculus; assay: Potency index, ratio of chlorzoxazone MED20 to compound MED20 for muscle relaxant activity in po dosed mouse assessed as blockade of pentylenetetrazol-induced tonic extensor seizure; format: functional
[19] = test system: Mus musculus; assay: Potency index, ratio of chlorzoxazone MED20 to compound MED20 for anticonvulsant activity in po dosed mouse assessed as blockade of supramaximal electroshock-induced […] seizure; format: functional
[20] = test system: Mus musculus; assay: Potency index, ratio of methocarbamol MED20 to compound MED20 for anticonvulsant activity in po dosed mouse assessed as blockade of supramaximal electroshock-induced […] seizure; format: functional
[21] = test system: Mus musculus; assay: Potency index, ratio of methocarbamol MED20 to compound MED20 for muscle relaxant activity in po dosed mouse assessed as blockade of pentylenetetrazol-induced tonic extensor seizure; format: functional
[22] = Therapeutic index, ratio of PD50 for acute toxicity in po dosed mouse assessed as concentration required to produce 50% loss of righting reflex to MED25 for muscle relaxant activity in po dosed mouse assessed as increase in strychnine-induced persistant convulsive threshold; format: organism-based; conditions: in vivo, read-out: TI
[23] = test system: Mus musculus; assay: Hypnotic activity in po dosed mouse assessed as increase in pentylenetetrazol-induced persistent-convulsive threshold; format: functional, organism-based
[24] = test system: Mus musculus; assay: Sedative-hypnotic activity in mouse assessed as increase in pentylenetetrazol-induced pseudo/persistent-convulsive threshold at 1 to 5 mg/kg, po; format: functional, organism-based

Compound	minimal effective dose [1]	MED25 [5]	MED20 [6]	MED20 [7]	LD50 at 144 h [8]	selectivity ratio [9]	PD50 [10]	Activity [12]	Activity [14]	further results
CCN1CCC/C1=N\C(=O)Nc1cccc(Cl)c1	15 mg/kg	137 mg/kg	200 mg/kg	60 mg/kg	1700 mg/kg	1.2	1307 mg/kg	–	–	Activity [2]: Active; Activity [3]: Active; selectivity ratio [4]: 58
CN1CCC/C1=N\C(=O)Nc1cccc(Br)c1	25 mg/kg	58 mg/kg	180 mg/kg	52 mg/kg	1580 mg/kg	1.1	1430 mg/kg	–	–	selectivity ratio [4]: 57; Activity [11]: Active
CCC1(c2ccccc2)C(=O)NC(=O)NC1=O [PHENOBARBITAL]	–	–	–	–	–	3	–	–	–	–
CC(C)c1cccc(C(C)C)c1NC(=O)/N=C1\CCCN1C	–	>200 mg/kg	165 mg/kg	180 mg/kg	260 mg/kg	–	–	inactive	inactive	Time [13]: 1 min
CCCCCCCCCCCCNC(=O)/N=C1\CCCN1	–	–	–	–	–	–	–	–	–	Activity [15]: Active
CNC1=Nc2ccc(Cl)cc2C(c2ccccc2)=[N+]([O-])C1 [CHLORDIAZEPOXIDE]	2.5 mg/kg	10 mg/kg	71 mg/kg	1.5 mg/kg	990 mg/kg	1.5	680 mg/kg	–	–	Activity [16]: Active; selectivity ratio [4]: 260; Activity [17]: Active
CN1CCC/C1=N\C(=O)Nc1cccc(C(F)(F)F)c1	> 25 mg/kg	58 mg/kg	76 mg/kg	47 mg/kg	> 1000 mg/kg	–	1000 mg/kg	–	–	Activity [11]: Active
CN1CCC/C1=N\C(=O)Nc1cccc(I)c1	> 25 mg/kg	86 mg/kg	112 mg/kg	36 mg/kg	> 1000 mg/kg	–	> 820 mg/kg	–	–	–
COc1cccc(NC(=O)/N=C2\CCCN2C)c1	> 25 mg/kg	135 mg/kg	135 mg/kg	68 mg/kg	1200 mg/kg	1.5	1390 mg/kg	–	–	Activity [11]: Active
CCc1cccc(C)c1NC(=O)/N=C1\CCCN1C	–	96 mg/kg	36 mg/kg	20 mg/kg	650 mg/kg	–	–	inactive	inactive	Ratio [18]: 4; Ratio [19]: 3; Ratio [20]: 3; Ratio [21]: 4; Time [13]: 1 min
Cc1cccc(NC(=O)/N=C2\CCCN2C)c1	25 mg/kg	>200 mg/kg	76 mg/kg	25 mg/kg	850 mg/kg	1	825 mg/kg	–	–	selectivity ratio [4]: 33; Activity [11]: Active
COc1cccc(NC(=O)/N=C2\CCC(C)N2C)c1 (stereo not drawn)	> 25 mg/kg	160 mg/kg	135 mg/kg	68 mg/kg	1900 mg/kg	1.5	680 mg/kg	–	–	–
CCc1cccc(CC)c1NC(=O)/N=C1\CCCN1C	> 25 mg/kg	120 mg/kg	64 mg/kg	16 mg/kg	370 mg/kg	2.3	161 mg/kg	inactive	inactive	Ratio [18]: 4; selectivity ratio [22]: 1.3; Ratio [21]: 4; Time [13]: 1 min
CN1CCC/C1=N\C(=O)Nc1cccc(F)c1	25 mg/kg	210 mg/kg	200 mg/kg	38 mg/kg	525 mg/kg	1	500 mg/kg	–	–	selectivity ratio [4]: 20
CN1CCC/C1=N\C(=O)Nc1c(Br)cccc1Br	> 25 mg/kg	50 mg/kg	74 mg/kg	25 mg/kg	560 mg/kg	1.6	350 mg/kg	inactive	inactive	Ratio [18]: 4; selectivity ratio [22]: 7; Ratio [21]: 4; Time [13]: 1 min
CN1CCC/C1=N\C(=O)Nc1ccccc1	15 mg/kg	35 mg/kg	>100 mg/kg	40 mg/kg	215 mg/kg	1	220 mg/kg	–	–	selectivity ratio [4]: 15; Activity [11]: Active
Cc1cccc(Cl)c1NC(=O)/N=C1\CCCN1C	> 25 mg/kg	52 mg/kg	43 mg/kg	28 mg/kg	449 mg/kg	1.9	232 mg/kg	inactive	inactive	Ratio [18]: 4; Ratio [19]: 3; Ratio [20]: 3; selectivity ratio [22]: 4.5; Ratio [21]: 4; Time [13]: 1 min
COc1cccc(OC)c1NC(=O)/N=C1\CCCN1C	> 25 mg/kg	>200 mg/kg	80 mg/kg	62 mg/kg	650 mg/kg	1.4	460 mg/kg	inactive	inactive	Time [13]: 1 min
CN1CCC/C1=N\C(=S)Nc1ccccc1	–	–	–	–	–	–	–	–	–	Activity [1]: inactive; Activity [23]: inactive; Activity [2]: inactive; Activity [5]: inactive; Activity [6]: inactive; Activity [7]: inactive
CN1CCC/C1=N\C(=O)Nc1c(Cl)cccc1Cl	> 25 mg/kg	64 mg/kg	58 mg/kg	25 mg/kg	565 mg/kg	1.8	320 mg/kg	inactive	inactive	Ratio [18]: 4; selectivity ratio [22]: 5; Ratio [21]: 4; Time [13]: 1 min
CN1CCCCC/C1=N\C(=O)Nc1cccc(Cl)c1	–	–	–	–	–	–	–	–	–	Activity [1]: inactive; Activity [23]: inactive; Activity [2]: inactive; Activity [5]: inactive; Activity [6]: inactive; Activity [7]: inactive
Cc1cccc(C)c1NC(=O)/N=C1\CCCN1C [XILOBAM]	> 25 mg/kg	26 mg/kg	27 mg/kg	22 mg/kg	–	–	230 mg/kg	inactive	inactive	–
Cc1ccccc1NC(=O)/N=C1\CCCN1C	–	–	–	–	–	–	–	–	–	Activity [1]: Active; Activity [23]: Active; Activity [2]: Active; Activity [5]: Active; Activity [6]: Active; Activity [7]: Active
CN1CCC/C1=N\C(=S)Nc1ccc([N+](=O)[O-])cc1	–	–	–	–	–	–	–	–	–	Activity [1]: inactive; Activity [23]: inactive; Activity [2]: inactive; Activity [5]: inactive; Activity [6]: inactive; Activity [7]: inactive
CN1C(=O)CN=C(c2ccccc2)c2cc(Cl)ccc21 [DIAZEPAM]	0.5 mg/kg	0.17 mg/kg	15 mg/kg	0.1 mg/kg	–	–	–	–	–	Activity [24]: Active
